Active and inactive are the calls of the source. The calls are words filed in the database; no cut-off is given here.

For orientation: EC50 means the concentration at which the effect is half-maximal. What is called IC50 is the concentration that gives 50% inhibition.

Test system in one assay: not listed separately
Description: Inhibition of gamma-secretase assessed as increase in beta-C-terminal fragment level after 24 hrs by double sandwich ELISA.
Conditions: not given
Regarding `CC(C)[C@H](NS(=O)(=O)c1ccc(Cl)s1)c1ccnn1-c1ccc(O)cc1`, the outcome was Active.

`CCC(CC)[C@H](NS(=O)(=O)c1ccc(Cl)s1)c1ccnn1Cc1ccc(O)cc1`: the result was Active.

As to `CCC(CC)[C@H](NS(=O)(=O)c1ccc(Cl)s1)c1ccnn1-c1ccc(OC)cc1`, the result was Active.

With `Cc1ccc(-n2nccc2[C@@H](NS(=O)(=O)c2ccc(Cl)s2)C(C)C)cc1`, the outcome was Active.

For `CCC(CC)[C@H](NS(=O)(=O)c1ccc(Cl)s1)c1ccnn1Cc1ccc(OC)cc1`, the outcome was Active.

As to `CCC(CC)C(NS(=O)(=O)c1ccc(Cl)s1)c1ccnn1Cc1ccc(O)cc1` (stereo not drawn), the outcome was Active.

In the case of `COc1ccc(-n2nccc2[C@@H](NS(=O)(=O)c2ccc(Cl)s2)C(C)C)cc1`, the result was Active.

Test system in another assay: not listed separately
Description: Inhibition of gamma-secretase assessed as effect on APP level after 24 hrs by double sandwich ELISA.
Conditions: not given
`CC(C)[C@H](NS(=O)(=O)c1ccc(Cl)s1)c1ccnn1-c1ccc(O)cc1`: the outcome was Active.

Take `CCC(CC)[C@H](NS(=O)(=O)c1ccc(Cl)s1)c1ccnn1Cc1ccc(O)cc1`: the outcome was Active.

On to `CCC(CC)[C@H](NS(=O)(=O)c1ccc(Cl)s1)c1ccnn1-c1ccc(OC)cc1`, for which the outcome was Active.

Consider `Cc1ccc(-n2nccc2[C@@H](NS(=O)(=O)c2ccc(Cl)s2)C(C)C)cc1`, for which the result was Active.

Regarding `CCC(CC)[C@H](NS(=O)(=O)c1ccc(Cl)s1)c1ccnn1Cc1ccc(OC)cc1`, the outcome was Active.

Regarding `CCC(CC)C(NS(=O)(=O)c1ccc(Cl)s1)c1ccnn1Cc1ccc(O)cc1` (stereo not drawn), the outcome was Active.

As to `COc1ccc(-n2nccc2[C@@H](NS(=O)(=O)c2ccc(Cl)s2)C(C)C)cc1`, the result was Active.

In the next assay the test system is CHO. Description: (§1) Inhibition of gamma-secretase-mediated cleavage of human APP expressed in CHO cells assessed as reduction in amyloid beta42 production after 24 hrs by double sandwich ELISA. Format: cell-based.
Conditions: not given
Background: ELISA stands for enzyme-linked immunosorbent assay.
On to `CC(C)[C@H](NS(=O)(=O)c1ccc(Cl)s1)c1ccnn1-c1ccc(O)cc1`, for which the result was Active.

As for `CCC(CC)[C@H](NS(=O)(=O)c1ccc(Cl)s1)c1ccnn1Cc1ccc(O)cc1`, the outcome was Active.

In the case of `CCC(CC)[C@H](NS(=O)(=O)c1ccc(Cl)s1)c1ccnn1-c1ccc(OC)cc1`, the result was Active.

As to `Cc1ccc(-n2nccc2[C@@H](NS(=O)(=O)c2ccc(Cl)s2)C(C)C)cc1`, the outcome was Active.

On to `CCC(CC)[C@H](NS(=O)(=O)c1ccc(Cl)s1)c1ccnn1Cc1ccc(OC)cc1`, for which the outcome was Active.

With `CCC(CC)C(NS(=O)(=O)c1ccc(Cl)s1)c1ccnn1Cc1ccc(O)cc1` (stereo not drawn), the outcome was Active.

In the case of `COc1ccc(-n2nccc2[C@@H](NS(=O)(=O)c2ccc(Cl)s2)C(C)C)cc1`, the result was Active.

Test system in the next assay: not listed separately
The assay is described as §1.
Conditions: not given
Format: cell-based.
For the compound `CCC(CC)[C@@H](CO)NS(=O)(=O)c1ccc(Cl)s1` [GSI-136], the EC50 turned out to be 0.029 µM.

Test system in a further assay: not listed separately
Put plainly: Selectivity ratio of EC50 for gamma-secretase-mediated mouse notch cleavage to EC50 for gamma-secretase-mediated amyloid beta40 production.
Conditions: not given
Consider `CC(C)[C@H](NS(=O)(=O)c1ccc(Cl)s1)c1ccnn1-c1ccc(O)cc1`, for which the Selectivity ratio worked out at 6.9.

Turning to `CCC(CC)[C@H](NS(=O)(=O)c1ccc(Cl)s1)c1ccnn1Cc1ccc(O)cc1`, the Selectivity ratio was 20.

Take `CCC(CC)[C@H](NS(=O)(=O)c1ccc(Cl)s1)c1ccnn1-c1ccc(OC)cc1`: the Selectivity ratio stood at 4.

As for `Cc1ccc(-n2nccc2[C@@H](NS(=O)(=O)c2ccc(Cl)s2)C(C)C)cc1`, the Selectivity ratio came to 39.

As for `CCC(CC)[C@H](NS(=O)(=O)c1ccc(Cl)s1)c1ccnn1Cc1ccc(OC)cc1`, the Selectivity ratio was 24.

`COc1ccc(-n2nccc2[C@@H](NS(=O)(=O)c2ccc(Cl)s2)C(C)C)cc1`: the Selectivity ratio was found to be 11.

Test system in another assay: not listed separately
Put plainly: Selectivity for gamma-secretase-mediated APP cleavage over gamma-secretase-mediated notch processing.
Conditions: not given
As for `C[C@H](c1ccc(F)cc1CCCC(=O)O)N(c1cc(F)ccc1F)S(=O)(=O)c1ccc(Cl)cc1`, the Selectivity ratio was 15.

Test system in the next assay: not listed separately
Put plainly: Inhibition of gamma-secretase-mediated cleavage of human APP expressed in CHO cells assessed as reduction in amyloid beta40 production after 24 hrs by double sandwich ELISA. Format: cell-based.
Conditions: not given
`CC(C)[C@H](NS(=O)(=O)c1ccc(Cl)s1)c1ccnn1-c1ccc(O)cc1`: the EC50 is 0.47 µM.

Take `CCC(CC)[C@H](NS(=O)(=O)c1ccc(Cl)s1)c1ccnn1Cc1ccc(O)cc1`: the EC50 was determined as 0.092 µM.

With `CCC(CC)[C@H](NS(=O)(=O)c1ccc(Cl)s1)c1ccnn1-c1ccc(OC)cc1`, the EC50 stood at 0.99 µM.

For `CCC(CC)[C@@H](CO)NS(=O)(=O)c1ccc(Cl)s1` [GSI-136], the EC50 was determined as 0.029 µM.

Consider `Cc1ccc(-n2nccc2[C@@H](NS(=O)(=O)c2ccc(Cl)s2)C(C)C)cc1`, for which the half-maximal effective concentration (EC50) turned out to be 0.32 µM.

`CCC(CC)[C@H](NS(=O)(=O)c1ccc(Cl)s1)c1ccnn1Cc1ccc(OC)cc1`: the EC50 was 0.11 µM.

Consider `CCC(CC)C(NS(=O)(=O)c1ccc(Cl)s1)c1ccnn1Cc1ccc(O)cc1` (stereo not drawn), for which the concentration giving a half-maximal response (EC50) is 0.14 µM.

Turning to `COc1ccc(-n2nccc2[C@@H](NS(=O)(=O)c2ccc(Cl)s2)C(C)C)cc1`, the EC50 was 0.55 µM.

Another assay has as its target Gamma-secretase. Put plainly: (§2) Displacement of [3H](S)-5-chloro-N-(3-ethyl-1-hydroxypentan-2-yl)thiophene-2-sulfonamide from gamma secretase in human SH-SY5Y cells after 1 hr. Format: cell-based.
Conditions: not given
Compound `CCC(CC)[C@H](NS(=O)(=O)c1ccc(Cl)s1)c1ccnn1Cc1ccc(O)cc1` displayed an IC50 of 0.154 µM. That is a sub-micromolar value.

For another assay, the target named is Gamma-secretase (Homo sapiens) (UniProt Q96BI3+Q9NZ42+Q8WW43+P49768+Q92542+P49810). Described as §2. It is filed as cell-based.
Conditions: not given
For `C[C@H](NC(=O)Cc1cc(F)cc(F)c1)C(=O)N[C@H](C(=O)OC(C)(C)C)c1ccccc1`, the result was Active.

Turning to `C[C@H](NC(=O)[C@@H](O)c1cc(F)cc(F)c1)C(=O)N[C@@H]1C(=O)N(C)c2ccccc2-c2ccccc21`, the outcome was Active.

For the compound `CCC(CC)[C@@H](CO)NS(=O)(=O)c1ccc(Cl)s1` [GSI-136], the outcome was Active.

`CC(C)[C@H](O)C(=O)N[C@@H](C)C(=O)N[C@@H]1C(=O)N(C)CCc2ccccc21`: the outcome was Active.

Test system in another assay: not listed separately
Put plainly: Inhibition of gamma-secretase-mediated mouse notch cleavage expressed in CHOK1 cells assessed as secreted alkaline phosphatase level after 48 hrs by chemiluminescence assay. The conditions noted are these: CHO-K1, 48 h. It is filed as cell-based.
As to `CC(C)[C@H](NS(=O)(=O)c1ccc(Cl)s1)c1ccnn1-c1ccc(O)cc1`, the EC50 worked out at 3.26 µM.

On to `CCC(CC)[C@H](NS(=O)(=O)c1ccc(Cl)s1)c1ccnn1Cc1ccc(O)cc1`, for which the EC50 was found to be 1.8 µM.

On to `CCC(CC)[C@H](NS(=O)(=O)c1ccc(Cl)s1)c1ccnn1-c1ccc(OC)cc1`, for which the half-maximal effective concentration (EC50) came out at 3.97 µM.

For `Cc1ccc(-n2nccc2[C@@H](NS(=O)(=O)c2ccc(Cl)s2)C(C)C)cc1`, the EC50 was 12.6 µM.

For `CCC(CC)[C@H](NS(=O)(=O)c1ccc(Cl)s1)c1ccnn1Cc1ccc(OC)cc1`, the EC50 came to 2.65 µM.

With `COc1ccc(-n2nccc2[C@@H](NS(=O)(=O)c2ccc(Cl)s2)C(C)C)cc1`, the EC50 was 6.12 µM.
